# Target: T1, SMYD3 (Homo sapiens, UniProt Q9H7B4)
# T1 sequence (Q9H7B4 1-428): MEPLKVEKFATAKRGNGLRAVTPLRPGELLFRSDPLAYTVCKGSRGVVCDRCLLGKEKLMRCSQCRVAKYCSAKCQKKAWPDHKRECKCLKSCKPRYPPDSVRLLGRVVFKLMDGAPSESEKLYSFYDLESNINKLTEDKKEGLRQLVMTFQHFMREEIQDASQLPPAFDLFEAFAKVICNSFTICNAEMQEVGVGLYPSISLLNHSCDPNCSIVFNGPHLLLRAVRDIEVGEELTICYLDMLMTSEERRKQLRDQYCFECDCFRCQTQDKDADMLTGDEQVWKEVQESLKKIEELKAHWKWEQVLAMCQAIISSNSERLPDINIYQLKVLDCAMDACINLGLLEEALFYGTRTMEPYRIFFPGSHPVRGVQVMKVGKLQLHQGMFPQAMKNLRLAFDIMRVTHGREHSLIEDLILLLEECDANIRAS
# Experiment: SMYD3 biochemical assay (MTase-Glo, MAP3K2 peptide substrate)
# Details: Table 3; MTase assay, MAP3K2 peptide substrate; read-out: IC50
# Method in brief: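 Luminescent readout of SAH production (coupled SAH→ATP conversion, MTase-Glo) after SMYD3 reacted 30 min at room temperature with 1.0 µM SAM and 10 µM MAP3K2 peptide, both final. Non-linear regression gave IC50 values.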
row,SMILES,IC50 [nM]
1,"CCCOC(=O)N1CCN(C(=O)c2ccc3c(Cl)cc(-c4cnn(C(C)C)c4)nc3c2)CC1 [B229, Propyl 4-(4-chloro-2-(1-isopropyl-1H-pyrazol-4-yl)quinoline-7-carbonyl)piperazine-1-carboxylate]",1100
2,"CCCOC(=O)N1CCN(C(=O)c2ccc3c(Cl)cc(-c4cnn(C(F)F)c4)nc3c2)CC1 [B230, Propyl 4-(4-chloro-2-(1-(difluoromethyl)-1H-pyrazol-4-yl)quinoline-7-carbonyl)piperazine-1-carboxylate]",700
3,"CCCOC(=O)N1CCN(C(=O)c2ccc3c(Cl)cc(-c4ccn(S(=O)(=O)N(C)C)c4)nc3c2)CC1 [B231, Propyl 4-(4-chloro-2-(1-(N,N-dimethylsulfamoyl)-1H-pyrrol-3-yl)quinoline-7-carbonyl)piperazine-1-carboxylate]",630
4,"CCCOC(=O)N1CCN(C(=O)c2ccc3c(Cl)cc(-c4ccc5c(c4)CNC5=O)nc3c2)CC1 [B232, Propyl 4-(4-chloro-2-(1-oxoisoindolin-5-yl)quinoline-7-carbonyl)piperazine-1-carboxylate]",150
5,"CNC(=O)c1ccc(-c2cc(Cl)c3ccc(C(=O)N4CCN(C(=O)OCCCF)[C@H](C)C4)cc3n2)cc1 [B233, 3-Fluoropropyl (R)-4-(4-chloro-2-(4-(methylcarbamoyl)phenyl)quinoline-7-carbonyl)-2-methylpiperazine-1-carboxylate]",160
6,"C[C@@H]1CN(C(=O)c2ccc3c(Cl)cc(-c4ccn(C)c4)nc3c2)CCN1C(=O)OCCCF [B234, 3-Fluoropropyl (R)-4-(4-chloro-2-(1-methyl-1H-pyrrol-3-yl)quinoline-7-carbonyl)-2-methylpiperazine-1-carboxylate]",98
7,"C[C@@H]1CN(C(=O)c2ccc3c(Cl)cc(-c4cc(F)c(O)c(F)c4)nc3c2)CCN1C(=O)OCCCF [B235, 3-Fluoropropyl (R)-4-(4-chloro-2-(3,5-difluoro-4-hydroxyphenyl)quinoline-7-carbonyl)-2-methylpiperazine-1-carboxylate]",230
8,"CCCOC(=O)N1CCN(C(=O)c2ccc3c(Cl)cc(-c4ccc(C(=O)NC)c(C)c4)nc3c2)CC1 [B236, Propyl 4-(4-chloro-2-(3-methyl-4-(methylcarbamoyl)phenyl)quinoline-7-carbonyl)piperazine-1-carboxylate]",360
9,"CCCOC(=O)N1CCN(C(=O)c2ccc3c(Cl)cc(-c4ccc5oc(C)nc5c4)nc3c2)CC1 [B237, Propyl 4-(4-chloro-2-(2-methylbenzo[d]oxazol-5-yl)quinoline-7-carbonyl)piperazine-1-carboxylate]",200
10,"CCCOC(=O)N1CCN(C(=O)c2ccc3c(Cl)cc(-c4ccc(N5CCCC5)c(F)c4)nc3c2)CC1 [B238, Propyl 4-(4-chloro-2-(3-fluoro-4-(pyrrolidin-1-yl)phenyl)quinoline-7-carbonyl)piperazine-1-carboxylate]",3500
11,"CCCOC(=O)N1CCN(C(=O)c2ccc3c(Cl)cc(-c4ccc(C(C)OCC)cc4)nc3c2)CC1 (stereo not drawn) [B239, Propyl 4-(4-chloro-2-(4-(1-ethoxyethyl)phenyl)quinoline-7-carbonyl)piperazine-1-carboxylate]",1300
12,"CCCOC(=O)N1CCN(C(=O)c2ccc3c(Cl)cc(-c4ccc(C(=O)NC)c(F)c4)nc3c2)[C@@H](C)C1 [B240, Propyl (S)-4-(4-chloro-2-(3-fluoro-4-(methylcarbamoyl)phenyl)quinoline-7-carbonyl)-3-methylpiperazine-1-carboxylate]",250
13,"CCCOC(=O)N1CCN(C(=O)c2ccc3c(Cl)cc(-c4ccc5ocnc5c4)nc3c2)[C@@H](C)C1 [B241, Propyl (S)-4-(2-(benzo[d]oxazol-5-yl)-4-chloroquinoline-7-carbonyl)-3-methylpiperazine-1-carboxylate]",240
14,"CCCOC(=O)N1CCN(C(=O)c2ccc3c(Cl)cc(-c4ccc(COCC5CC5)cc4)nc3c2)CC1 [B242, Propyl 4-(4-chloro-2-(4-((cyclopropylmethoxy)methyl)phenyl)quinoline-7-carbonyl)piperazine-1-carboxylate]",670
15,"CCCOC(=O)N1CCN(C(=O)c2ccc3c(Cl)cc(-c4ccc5ocnc5c4)nc3c2)C[C@H]1C [B243, Propyl (R)-4-(2-(benzo[d]oxazol-5-yl)-4-chloroquinoline-7-carbonyl)-2-methylpiperazine-1-carboxylate]",63
16,"CCCOC(=O)N1CCN(C(=O)c2ccc3c(Cl)cc(-c4ccc(C(C)(C)O)cc4)nc3c2)CC1 [B244, Propyl 4-(4-chloro-2-(4-(2-hydroxypropan-2-yl)phenyl)quinoline-7-carbonyl)piperazine-1-carboxylate]",140
17,"CNC(=O)c1ccc(-c2cc(Cl)c3ccc(C(=O)N4CCN(C(=O)OCC(C)C)CC4)cc3n2)cc1 [B245, Isobutyl 4-(4-chloro-2-(4-(methylcarbamoyl)phenyl)quinoline-7-carbonyl)piperazine-1-carboxylate]",1010

row,SMILES,IC50 [nM]
1,"CC(C)COC(=O)N1CCN(C(=O)c2ccc3c(Cl)cc(-c4ccn(C)c4)nc3c2)CC1 [B246, Isobutyl 4-(4-chloro-2-(1-methyl-1H-pyrrol-3-yl)quinoline-7-carbonyl)piperazine-1-carboxylate]",270
2,"CNC(=O)c1ccc(-c2cc(Cl)c3ccc(C(=O)N4CCN(C(=O)OCCF)CC4)cc3n2)cc1 [B247, 2-Fluoroethyl 4-(4-chloro-2-(4-(methylcarbamoyl)phenyl)quinoline-7-carbonyl)piperazine-1-carboxylate]",7400
3,"Cn1ccc(-c2cc(Cl)c3ccc(C(=O)N4CCN(C(=O)OCCF)CC4)cc3n2)c1 [B248, 2-Fluoroethyl 4-(4-chloro-2-(1-methyl-1H-pyrrol-3-yl)quinoline-7-carbonyl)piperazine-1-carboxylate]",140
4,"CCCOC(=O)N1CCN(C(=O)c2ccc3c(Cl)cc(-c4cnn(CC(N)=O)c4)nc3c2)CC1 [B249, Propyl 4-(2-(1-(2-amino-2-oxoethyl)-1H-pyrazol-4-yl)-4-chloroquinoline-7-carbonyl)piperazine-1-carboxylate]",190
5,"CCCOC(=O)N1CCN(C(=O)c2ccc3c(Cl)cc(-c4cn[nH]c4C(F)(F)F)nc3c2)CC1 [B250, Propyl 4-(4-chloro-2-(5-(trifluoromethyl)-1H-pyrazol-4-yl)quinoline-7-carbonyl)piperazine-1-carboxylate]",4900
6,"CCCOC(=O)N1CCN(C(=O)c2ccc3c(Cl)cc(-c4cc[nH]c4)nc3c2)C[C@H]1C [B251, Propyl (R)-4-(4-chloro-2-(1H-pyrrol-3-yl)quinoline-7-carbonyl)-2-methylpiperazine-1-carboxylate]",43
7,"CCCOC(=O)N1CCN(C(=O)c2ccc3c(Cl)cc(-c4ccn(S(C)(=O)=O)c4)nc3c2)CC1 [B252, Propyl 4-(4-chloro-2-(1-(methylsulfonyl)-1H-pyrrol-3-yl)quinoline-7-carbonyl)piperazine-1-carboxylate]",520
8,"CCCOC(=O)N1CCN(C(=O)c2ccc3c(Cl)cc(-c4cc(F)c(C(N)=O)c(F)c4)nc3c2)CC1 [B253, Propyl 4-(2-(4-carbamoyl-3,5-difluorophenyl)-4-chloroquinoline-7-carbonyl)piperazine-1-carboxylate]",490
9,"CCCOC(=O)N1CCN(C(=O)c2ccc3c(Cl)cc(-c4cc[nH]c4)nc3c2)[C@@H](C)C1 [B254, Propyl (S)-4-(4-chloro-2-(1H-pyrrol-3-yl)quinoline-7-carbonyl)-3-methylpiperazine-1-carboxylate]",54
10,"CCCOC(=O)N1CCN(C(=O)c2ccc3c(Cl)cc(-c4ccc(CO)cc4)nc3c2)CC1 [B255, Propyl 4-(4-chloro-2-(4-(hydroxymethyl)phenyl)quinoline-7-carbonyl)piperazine-1-carboxylate]",28
11,"CCCOC(=O)N1CCN(C(=O)c2ccc3c(Cl)cc(-c4ccc(COCC)cc4)nc3c2)CC1 [B256, Propyl 4-(4-chloro-2-(4-(ethoxymethyl)phenyl)quinoline-7-carbonyl)piperazine-1-carboxylate]",500
12,"CCCOC(=O)N1CCN(C(=O)c2ccc3c(Cl)cc(-c4ccc(CO)c(F)c4)nc3c2)CC1 [B257, Propyl 4-(4-chloro-2-(3-fluoro-4-(hydroxymethyl)phenyl)quinoline-7-carbonyl)piperazine-1-carboxylate]",150
13,"CCCOC(=O)N1CCN(C(=O)c2ccc3c(Cl)cc(-c4cc(F)c(CN)c(F)c4)nc3c2)CC1 [B258, Propyl 4-(2-(4-(aminomethyl)-3,5-difluorophenyl)-4-chloroquinoline-7-carbonyl)piperazine-1-carboxylate]",850
14,"C[C@@H]1CN(C(=O)c2ccc3c(Cl)cc(C4CC4)nc3c2)CCN1C(=O)OCCF [B259, 2-Fluoroethyl (R)-4-(4-chloro-2-cyclopropylquinoline-7-carbonyl)-2-methylpiperazine-1-carboxylate]",2600
15,"C[C@H]1CN(C(=O)OCCF)CCN1C(=O)c1ccc2c(Cl)cc(C3CC3)nc2c1 [B260, 2-Fluoroethyl (S)-4-(4-chloro-2-cyclopropylquinoline-7-carbonyl)-3-methylpiperazine-1-carboxylate]",4900
16,"Cn1cc(-c2cc(Cl)c3ccc(C(=O)N4CCN(C(=O)OCCF)CC4)cc3n2)cn1 [B261, 2-Fluoroethyl 4-(4-chloro-2-(1-methyl-1H-pyrazol-4-yl)quinoline-7-carbonyl)piperazine-1-carboxylate]",2700

# — patent US20190071416A1, “COMPOUNDS FOR TREATMENT OF CANCER AND EPIGENETICS” (Agency For Science, Technology and Research, priority 2015, published 2019)
